According to patent US12441733B2, “Substituted 2,4-dioxotetrahydropyrimidines as intermediates in the synthesis of bruton's tyrosine kinase inhibitors” (Novartis AG, priority 2018, dated 2025):

Target: T1, BTK(C481S)-GFP (Homo sapiens, UniProt Q06187+Q96SW2, C481S)
T1 construct: CHYSEL (cis-acting hydrolase element, 2A) remnant after GFP; mCherry is split off as a separate protein (C); expressed in transfected cells; host or cells: TMD8 cells, lentiviral transduction with pLenti6-BTK(C481S)-GFP-CHYSEL-mCherry
T1 sequence (Q06187 whole entry C481S): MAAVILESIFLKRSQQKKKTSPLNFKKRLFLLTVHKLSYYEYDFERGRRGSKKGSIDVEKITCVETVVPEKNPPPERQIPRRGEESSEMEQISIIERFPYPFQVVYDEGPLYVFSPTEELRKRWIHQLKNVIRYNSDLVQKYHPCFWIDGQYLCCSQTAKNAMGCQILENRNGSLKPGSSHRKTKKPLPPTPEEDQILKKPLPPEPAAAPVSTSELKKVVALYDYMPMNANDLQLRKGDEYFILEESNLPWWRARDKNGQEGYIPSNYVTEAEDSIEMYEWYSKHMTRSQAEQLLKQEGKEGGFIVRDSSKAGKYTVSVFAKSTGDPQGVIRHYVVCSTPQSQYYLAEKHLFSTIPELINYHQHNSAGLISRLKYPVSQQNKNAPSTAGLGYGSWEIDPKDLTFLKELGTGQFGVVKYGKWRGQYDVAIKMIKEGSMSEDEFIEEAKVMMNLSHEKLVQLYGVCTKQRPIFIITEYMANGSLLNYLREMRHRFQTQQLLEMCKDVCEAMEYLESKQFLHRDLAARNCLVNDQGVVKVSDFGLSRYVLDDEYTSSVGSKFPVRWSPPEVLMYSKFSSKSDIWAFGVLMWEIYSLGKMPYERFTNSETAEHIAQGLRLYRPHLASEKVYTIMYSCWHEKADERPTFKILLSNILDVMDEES
T1 sequence (Q96SW2 whole entry): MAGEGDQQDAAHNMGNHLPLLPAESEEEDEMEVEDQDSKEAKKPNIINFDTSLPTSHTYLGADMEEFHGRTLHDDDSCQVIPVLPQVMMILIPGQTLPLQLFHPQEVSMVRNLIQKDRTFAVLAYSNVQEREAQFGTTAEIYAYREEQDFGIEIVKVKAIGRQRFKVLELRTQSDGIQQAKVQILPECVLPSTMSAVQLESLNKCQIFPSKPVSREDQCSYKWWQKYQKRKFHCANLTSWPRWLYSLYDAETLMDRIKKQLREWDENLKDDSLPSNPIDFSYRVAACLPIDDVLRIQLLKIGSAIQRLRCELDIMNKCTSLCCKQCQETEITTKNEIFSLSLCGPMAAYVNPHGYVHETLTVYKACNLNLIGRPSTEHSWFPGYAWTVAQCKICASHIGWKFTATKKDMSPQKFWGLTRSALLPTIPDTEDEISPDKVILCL
T1 sequence (Q16531 whole entry partner): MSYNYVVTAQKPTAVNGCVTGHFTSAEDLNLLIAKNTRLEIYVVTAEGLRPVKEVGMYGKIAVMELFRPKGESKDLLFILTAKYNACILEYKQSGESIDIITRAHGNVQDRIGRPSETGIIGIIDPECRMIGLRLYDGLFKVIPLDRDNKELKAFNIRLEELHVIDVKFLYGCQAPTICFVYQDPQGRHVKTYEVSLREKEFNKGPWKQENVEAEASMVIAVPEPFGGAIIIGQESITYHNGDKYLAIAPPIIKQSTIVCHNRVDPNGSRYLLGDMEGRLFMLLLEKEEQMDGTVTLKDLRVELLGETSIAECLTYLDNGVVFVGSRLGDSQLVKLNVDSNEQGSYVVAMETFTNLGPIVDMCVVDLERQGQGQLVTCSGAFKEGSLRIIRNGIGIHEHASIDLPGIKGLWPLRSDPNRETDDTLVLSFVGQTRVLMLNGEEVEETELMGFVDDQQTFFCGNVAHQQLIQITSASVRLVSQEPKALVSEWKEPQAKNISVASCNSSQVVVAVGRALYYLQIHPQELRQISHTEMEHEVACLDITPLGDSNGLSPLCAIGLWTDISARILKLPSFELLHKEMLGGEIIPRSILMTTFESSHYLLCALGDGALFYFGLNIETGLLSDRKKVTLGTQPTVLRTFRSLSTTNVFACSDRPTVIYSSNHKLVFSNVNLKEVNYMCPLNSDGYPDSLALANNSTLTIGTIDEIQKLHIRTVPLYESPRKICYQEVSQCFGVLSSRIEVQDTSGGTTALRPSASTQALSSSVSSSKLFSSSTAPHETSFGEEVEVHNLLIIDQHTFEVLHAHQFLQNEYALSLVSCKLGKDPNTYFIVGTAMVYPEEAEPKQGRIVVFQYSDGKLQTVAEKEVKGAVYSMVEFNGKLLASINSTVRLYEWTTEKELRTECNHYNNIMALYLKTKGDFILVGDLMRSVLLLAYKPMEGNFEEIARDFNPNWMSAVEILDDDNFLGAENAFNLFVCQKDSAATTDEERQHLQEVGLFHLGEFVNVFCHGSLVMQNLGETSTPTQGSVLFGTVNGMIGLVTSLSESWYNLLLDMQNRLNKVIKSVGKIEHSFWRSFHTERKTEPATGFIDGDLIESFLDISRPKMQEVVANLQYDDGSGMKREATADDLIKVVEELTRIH
Experiment: BTK(C481S)-GFP protein abundance flow cytometry assay in TMD8 cells
Type: cell-based
Details: TMD8 cells expressing BTK(C481S)-GFP; for DC50: GFP signal by flow cytometry; for BTK (C481S) Amax: % protein remaining at maximum degradation
Method: Compounds of the invention were tested in the following cellular assays. The terms in Table 2 are defined as follows: DC50 refers to the concentration at which 50% maximal degradation was observed; deg Amax is the extent of degradation and the value refers to the % protein remaining at the concentration at which maximum degradation is seen; ProI GI50 refers to the proliferation data and defines the concentration at which 50% growth inhibition was observed compared to the vehicle treated control at the end of the incubation time. TMD8 cells are BTK dependent and OCI-LY3 cells are BTK independent.
Btk(C481S)-GFP Protein Abundance Flow Cytometry Assay in TMD8 Cells:
Degradation of BTK(C481S) was measured in TMD8 cells expressing BTK(C481S)-GFP and mCherry from a stably integrated second generation bicistronic BTK(C481S)-GFP-CHYSEL-mCherry construct. Reduction of the […] measured by flow cytometry served as readout for BTK(C481S) degradation after degrader treatment.
Cloning of the pLenti6-BTK(C481)-GFP-CHYSEL-mCherry Sensor Vectors
The BTK(C481 S) protein abundance sensor is based on a second generation bicistronic construct, where the 2 reading frames BTK(C481S) and mCherry control are separated by a cis-acting hydrolase element (see: Lo et al., 2015 Cell Reports 13, 2634), replacing the Ires from the first generation vector described before.
The bicistronic BTK(C481S)-GFP-CHYSEL-mCherry construct is based on a pLenti6-DEST vector backbone where a GFP-CHYSEL-mCherry cassette was synthesized and inserted downstream of the DEST cassette by Gibson assembly resulting in the new gateway compatible vector pLenti6-DEST-GFP-CHYSEL-mCherry to allow Gateway cloning with pENTR221-BTK(C48S)(STOP-Leu) to obtain the final sensor construct pLenti6-BTK(C481S)-GFP-CHYSEL-mCherry. The pENTR221-BTK(C481S)(STOP-Leu) was generated by mutating wild-type BTK to BTK(C481S) with a mutagenesis reaction on pENTR221-BTK (STOP-Leu) with the following primers (BTK C481S Quikchange fw, gagtacatggccaatggctCcctcctgaactacctgagg (SEQ ID NO: 7); BTK C481S Quikchange REVC, cctcaggtagttcaggaggGagccattggccatgtactc (SEQ ID NO: 8)) using the QuikChange Lightning mutagenesis kit (Agilent Technologies #210518) performed according to the manufacturer's manual, resulting in pENTR221-BTK(C481S)(STOP-Leu).
Sequence of the synthesized construct (Xho1 sites are shown in bold, mCherry-ORF is shown in small letters):
Engineering of Stably Expressing TMD8 BTK(C481 S-GFP-CHYSEL-mCherry Sensor Cells
TMD8 BTK(C481S)-GFP-CHYSEL-mCherry sensor cells were generated by lentiviral vector transduction using the pLenti6-BTK(C4818)-GFP-CHYSEL-mCherry sensor construct described before. Lentiviral particles were produced in HEK293FT cells (Invitrogen R70007) by co-transfection of 500 ng pLenti6-BTK-GFP-Ires-RFP or pLenti6-IKZF3-GFP-Ires-RFP, 500 ng delta8.71 and 200 ng pVSVG diluted in 100 μl OptiMEM serum free medium (Invitrogen #11058-021) that was mixed after 5 min preincubation with 3 μl of Lipofectamine2000 (Invitrogen #11668-019) in 97 μl OptiMEM serum free medium. The mix was incubated for another 20 min at RT and then added to 1 ml of a freshly prepared suspension of HEK293FT cells in a well of a 6-well plate (concentration 1.2×10^6 cells/ml). 1 day after transfection, the medium was replaced with 1.5 ml of complete growth medium (DMEM high Glucose+10% FCS+1% L-Glutamine+1% NEAA+1% NaPyr.). 48 h post transfection supernatant containing viral transducing particles was collected and frozen at −80° C.
Two days before transduction with viral particles 1×10^5 HEK293A cells (Invitrogen R7057) were seeded in 2 ml growth medium in a well of a 6-well plate. Infection was performed with 90 μl of collected supernatant containing viral transducing particles in 1 ml medium including 8 μg/ml polybrene. 24 h post infection, stably transfected cells were selected with blasticidin at a concentration of 8 μg/ml.

DC50 [nM] | BTK (C481S) Amax [%] | Compound
1.58 | 2.9 | Cc1c(NC(=O)c2ccc(C(C)(C)O)cc2F)cc(F)cc1-c1ncnc2[nH]c(-c3ccc(CCN4CCC5(CC4)CCN(C(=O)c4cccc(N6CCC(=O)NC6=O)c4)CC5)cc3)cc12 [Compound 12, N-(3-(6-(4-(2-(9-(3-(2,4-Dioxotetrahydropyrimidin-1(2H)-yl)benzoyl)-3,9-diazaspiro[5,5]undecan-3-yl)ethyl)phenyl)-7H-pyrrolo[2,3-d]pyrimidin-4-yl)-5-fluoro-2-methylphenyl)-2-fluoro-4-(2-hydroxypropan-2-yl)benzamide]
1.52 | 2.8 | Cc1c(NC(=O)c2ccc(C(C)(C)O)cc2F)cc(F)cc1-c1ncnc2[nH]c(-c3ccc(CN4CCC5(CC4)CCN(C(=O)c4ccc(F)c(N6CCC(=O)NC6=O)c4)CC5)cc3)cc12 [Compound 14, N-(3-(6-(4-((9-(3-(2,4-Dioxotetrahydropyrimidin-1(2H)-yl)-4-fluorobenzoyl)-3,9-diazaspiro[5.5]undecan-3-yl)methyl)phenyl)-7H-pyrrolo[2.3-d]pyrimidin-4-yl)-5-fluoro-2-methylphenyl)-2-fluoro-4-(2-hydroxypropan-2-yl)benzamide]
2.08 | 2.2 | CCOc1ccc(C(=O)N2CCC3(CCN(Cc4ccc(-c5cc6c(-c7cc(F)cc(NC(=O)c8ccc(C(C)(C)O)cc8F)c7C)ncnc6[nH]5)cc4)CC3)CC2)cc1N1CCC(=O)NC1=O [Compound 4, N-(3-(6-(4-((9-(3-(2,4-Dioxotetrahydropyrimidin-1(2H)-yl)-4-ethoxybenzoyl)-3,9-diazaspiro[5.5]undecan-3-yl)methyl)phenyl)-7H-pyrrolo[2,3-d]pyrimidin-4-yl)-5-fluoro-2-methylphenyl)-2-fluoro-4-(2-hydroxypropan-2-yl)benzamide]
0.81 | 2.8 | Cc1ccc(C(=O)N2CCC3(CCN(Cc4ccc(-c5cc6c(-c7cc(F)cc(NC(=O)c8ccc(C(C)(C)O)cc8F)c7C)ncnc6[nH]5)cc4)CC3)CC2)cc1N1CCC(=O)NC1=O [Compound 27, N-(3-(6-(4-((9-(3-(2,4-Dioxotetrahydropyrimidin-1(2H)-yl)-4-methylbenzoyl)-3,9-diazaspiro[5.5]undecan-3-yl)methyl)phenyl)-7H-pyrrolo[2,3-d]pyrimidin-4-yl)-5-fluoro-2-methylphenyl)-2-fluoro-4-(2-hydroxypropan-2-yl)benzamide]
2.47 | 4.5 | COc1ccc(C(=O)N2CCN(C(=O)N3CCN(Cc4ccc(-c5cc6c(-c7cc(F)cc(NC(=O)c8ccc(C(C)(C)O)cc8F)c7C)ncnc6[nH]5)cc4)CC3)CC2)cc1N1CCC(=O)NC1=O [Compound 22, N-(3-(6-(4-((4-(4-(3-(2,4-Dioxotetrahydropyrimidin-1(2H)-yl)-4-methoxybenzoyl)piperazine-1-carbonyl)piperazin-1-yl)methyl)phenyl)-7H-pyrrolo[2,3-d]pyrimidin-4-yl)-5-fluoro-2-methylphenyl)-2-fluoro-4-(2-hydroxypropan-2-yl)benzamide]
1.94 | 1.6 | COc1ccc(C(=O)N2CCC(OC3CCN(CCc4ccc(-c5cc6c(-c7cc(F)cc(NC(=O)c8ccc(C(C)(C)O)cc8F)c7C)ncnc6[nH]5)cc4)CC3)CC2)cc1N1CCC(=O)NC1=O [Compound 34, N-(3-(6-(4-(2-(4-((1-(3-(2,4-Dioxotetrahydropyrimidin-1(2H)-yl)-4-methoxybenzoyl)piperidin-4-yl)oxyl)piperidin-1-yl)ethyl)phenyl)-7H-pyrrolo[2,3-d]pyrimidin-4-yl)-5-fluoro-2-methylphenyl)-2-fluoro-4-(2-hydroxypropan-2-yl)benzamide]
1.92 | 4.5 | COc1ccc(C(=O)N2CCC3(CCN(Cc4ccc(-c5cc6c(-c7cc(F)cc(NC(=O)c8ccc(C(C)(C)O)cc8F)c7C)ncnc6[nH]5)cc4)CC3)CC2)cc1N1CCC(=O)NC1=O [Compound 9, N-(3-(6-(4-((9-(3-(2,4-Dioxotetrahydropyrimidin-1(2H)-yl)-4-methoxybenzoyl)-3,9-diazaspiro[5.5]undecan-3-yl)methyl)phenyl)-7H-pyrrolo[2.3-d]pyrimidin-4-yl)-5-fluoro-2-methylphenyl)-2-fluoro-4-(2-hydroxypropan-2-yl)benzamide]
0.72 | 2.1 | Cc1c(NC(=O)c2ccc(C(C)(C)O)cc2F)cc(F)cc1-c1ncnc2[nH]c(-c3ccc(COC4CCN(CCC5CCN(C(=O)c6ccc(F)c(N7CCC(=O)NC7=O)c6)CC5)CC4)cc3)cc12 [Compound 6, N-(3-(6-(4-(((1-(2(1-(3-(2,4-dioxotetrahydropyrimidin-1(2H)-yl)-4-fluorobenzoyl)piperidin-4-yl)ethyl)piperidin-4-yl)oxyl)methyl)phenyl)-7H-pyrrolo[2,3-d]pyrimidin-4-yl)-5-fluoro-2-methylphenyl)-2-fluoro-4-(2-hydroxypropan-2-yl)benzamide]
0.68 | 2.4 | COc1ccc(C(=O)N2CCC3(CC2)CCN(C(C)(C)Cc2ccc(-c4cc5c(-c6cc(F)cc(NC(=O)c7ccc(C(C)(C)O)cc7F)c6C)ncnc5[nH]4)cc2)CC3)cc1N1CCC(=O)NC1=O [Compound 20, N-(3-(6-(4-(2-(9-(3-(2,4-Dioxotetrahydropyrimidin-1(2H)-yl)-4-methoxybenzoyl)-3,9-diazaspiro[5.5]undecan-3-yl)-2-methylpropyl)phenyl)-7H-pyrrolo[2,3-d]pyrimidin-4-yl)-5-fluoro-2-methylphenyl)-2-fluoro-4-(2-hydroxypropan-2-yl)benzamide]
1.21 | 3.0 | COc1ccc(C(=O)N2CCC3(CCN(CCc4ccc(-c5cc6c(-c7cc(F)cc(NC(=O)c8ccc(C(C)(C)O)cc8F)c7C)ncnc6[nH]5)cc4)CC3)CC2)cc1N1CCC(=O)NC1=O [Compound 31, N-(3-(6-(4-(2-(9-(3-(2,4-Dioxotetrahydropyrimidin-1(2H)-yl)-4-methoxybenzoyl)-3,9-diazaspiro[5.5]undecan-3-yl)ethyl)phenyl)-7H-pyrrolo[2,3-d]pyrimidin-4-yl)-5-fluoro-2-methylphenyl)-2-fluoro-4-(2-hydroxypropan-2-yl)benzamide]
